Assay results taken from paper PMC4891657, “Orexin 2 Receptor Antagonism is Sufficient to Promote NREM and REM Sleep from Mouse to Man” (Scientific Reports, 2016).

How the values were obtained:
OX2R = target: T1, OX2R (Homo sapiens, UniProt O43614); assay: Radio-ligand displacement binding, CHO-K1 membranes, human OX2R; design: expressed in transfected cells; host or cells: CHO-K1; conditions: for fold OX2R selectivity (Ki): OX1R Ki / OX2R Ki; for Ki: read-out: OX2R affinity (Ki)
T1 sequence (O43614 1-444): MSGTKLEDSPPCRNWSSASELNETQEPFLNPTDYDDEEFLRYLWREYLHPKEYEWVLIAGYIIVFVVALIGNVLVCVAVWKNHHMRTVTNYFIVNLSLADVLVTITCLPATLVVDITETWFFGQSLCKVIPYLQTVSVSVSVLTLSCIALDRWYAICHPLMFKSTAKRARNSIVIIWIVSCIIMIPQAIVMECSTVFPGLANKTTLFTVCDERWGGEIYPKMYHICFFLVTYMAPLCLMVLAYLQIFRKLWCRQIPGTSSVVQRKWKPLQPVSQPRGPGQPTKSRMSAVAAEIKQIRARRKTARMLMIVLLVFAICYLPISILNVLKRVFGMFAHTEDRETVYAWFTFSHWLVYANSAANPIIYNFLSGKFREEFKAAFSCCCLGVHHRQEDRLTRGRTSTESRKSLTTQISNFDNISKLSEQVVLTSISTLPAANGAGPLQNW
Method: MK-1064 was evaluated for its ability to inhibit orexin-peptide-A-induced calcium mobilization in CHO cell lines separately expressing OX1R and OX2R from mice, rats, rabbits, dogs, rhesus monkeys and humans.
Binding and functional blockade of OX1R and OX2R with MK-1064 relative to other 2-SORAs and the DORA, MK-6096, were assessed using membranes from Chinese hamster ovary (CHO)-K1 cells (American Type Tissue Collection, Manassas, VA) transfected to express human, mouse, rat, rabbit, dog, or rhesus monkey OX1R or OX2R receptors, as described previously. The kinetics of binding to human OX2R was assessed by radioligand displacement on CHO-K1 cells expressing the receptor. […] The ON rate analysis was performed by presoaking GF/B filters in 0.3% polyethyleneimine (Sigma) using a Skatron 12-well cell harvester and cold buffer at the indicated time points after addition. For OFF rate determination, binding reactions were allowed to proceed to equilibrium and terminated with 1000x [Kd] of unlabeled antagonist and filtered as above at pre-determined time points. Ultima Gold^TM (PerkinElmer 6013327) scintillation cocktail was added to each filter disc and counted on a PerkinElmer TriCarb 2910 scintillation counter. Data were analyzed using GraphPad® Prism v 6.04 (San Diego, CA, USA). The KON rate was determined according to the equation, KON = (KOBS − KOFF)/[ligand].

[1] = Safety and tolerability, PSG study; format: in vivo, human
Description: In the ascending single-dose study, 52 AEs were considered to be related to the study drug, the most common of which was somnolence/sleepiness, drowsiness, and tiredness (15 of 16 subjects dosed with MK-1064), consistent with the intended pharmacological activity. […] In the PSG study, 13 of the 20 subjects enrolled reported ≥1 clinical AE. Of 24 clinical AEs reported, 18 were considered to be related to study treatment, all of which were mild or moderate in intensity. One report of transient sleep paralysis following MK-1064 250 mg was noted, while the most common MK-1064-related AEs were headache (3 subjects), nightmares (2 subjects) and dizziness (1 subject) (Supplementary Table 2).
Twenty healthy male subjects between the ages of 18 and 45 years were recruited to a double-blind, randomized, 4-period, crossover study to evaluate the effects of single doses of MK-1064. Subjects were without a history of physical or mental illnesses, had no history of sleep abnormalities, and were not regularly taking medication. Subject inclusion required a sleep score ≤6 on the Pittsburgh Sleep Quality Index at the time of screening, and qualified subjects underwent a PSG screening prior to randomization to exclude those with latent sleep disturbances. In each of the 4 treatment periods, subjects were randomized to receive single doses of MK-1064 (50, 120, or 250 mg) or matching placebo according to a balanced crossover design (see Fig. 5). Briefly, 20 subjects were randomized to 4 panels (n = 5 each). Each panel then received each of the four treatments (placebo, 50, 120, 250 mg MK-1064) in 4 different study periods where each period allocated the 4 different treatments to the 4 different subject panels. Progression through each period rotated the 4 different treatments among the subject panels such that each panel ultimately received all 4 treatments. In all 4 study periods, subjects were admitted for a pre-dose habituation night. On the following treatment night, subjects were administered a single dose of study medication in a blinded manner approximately 1 hour before their habitual bedtime. Study medication was administered following a ≥4-hour fast. Dosing in different treatment periods was separated by a washout of at least 7 days for each subject. PSG recording commenced at 1 hour post-dose and continued during undisturbed sleep for 8 hours overnight. Visual scoring of each 30-sec epoch of PSG recording to wake or one of four sleep states (S1, S2, SWS, collectively referred to as NREM, and REM) was performed according to standard and established Rechtschaffen and Kales criteria. Obtained scores were then used to calculate efficacy assessment measures including latency to persistent sleep (LPS) (min), wake after sleep onset (WASO) (min), sleep efficiency (SE) (%), and total sleep time (TST) (min). LPS is the time from lights off to the first epoch of 20 consecutive epochs of non-wake stage; WASO is the time in wake stage between the onset of persistent sleep and the time of lights on; and SE is the proportion of time between lights off and lights on that was spent in sleep. In addition to efficacy parameters, latency to REM (LREM) (min), equal to the time from lights off to the first epoch of REM, and the proportion (%) of TST spent in NREM and REM were calculated. Estimation of the effects of treatment on PSG endpoints relative to placebo, including the calculation of confidence intervals and p-values were done using a mixed-effect statistical model typical for crossover studies. Specifically, logarithm of an analyzed endpoint represented the response variable, and treatment dose, treatment period, and carryover effect were fixed-effect explanatory variables. Subject effect was the random effect with the within-subject covariance assumed to be of the unstructured type. […] SAS/STAT® Version 9.3 software (SAS Institute, Cary NC) was used in the analysis.

[2] = design: method as in PMID 24376006; conditions: dogs ref 29; cited from earlier work

Structure (SMILES)	fold OX2R selectivity (Ki) (OX2R)	Ki (OX2R) [nM]	also measured
COc1ccc(CNC(=O)c2cc(-c3cncc(C)c3)ncc2-c2ccccc2)nc1OC [2-SORA-7]	[5957] fold	0.47	–
COc1ccc(CNC(=O)c2cc(-c3cc(Cl)cc(Cl)c3)cnc2-c2cccnc2)cc1OC [2-SORA-18]	[1000] fold	0.1	–
COc1ccc(CNC(=O)c2cc(-c3cncc(Cl)c3)cnc2-c2ccccn2)nc1OC [MK-1064, 5″-chloro-N-[(5,6-dimethoxypyridin-2-yl)methyl]-2,2′:5′, 3″-terpyridine-3′-carbo xamide]	[2885] fold	0.52	MK-1064-related AE dizziness [1]: 1 subject; MK-1064-related AE headache [1]: 3 subjects; MK-1064-related AE nightmares [1]: 2 subjects; clinical AEs reported [1]: 24; reports of transient sleep paralysis ([1]; 250 mg): One; subjects reporting ≥1 clinical AE ([1]; 20 subjects enrolled, crossover 50, 120, 250 mg and placebo): 13 subjects; clinical AEs considered to be related to study treatment ([1]; all mild or moderate): 18; minimum plasma concentration needed for sleep-promoting efficacy [2]: 0.028 µM
COc1ccc(CNC(=O)c2cc(-c3cncc(C)c3)ncc2-c2nccs2)nc1OC [MK-3697]	–	0.97	–
Cc1ccc(-c2ncccn2)c(C(=O)N2C[C@H](COc3ccc(F)cn3)CC[C@H]2C)c1 [MK-6096]	[8.1] fold	0.31	–
